The values below come from PMC9227781, “Inhibitors of O-Acetylserine Sulfhydrylase with a Cyclopropane-Carboxylic Acid Scaffold Are Effective Colistin Adjuvants in Gram Negative Bacteria” (Pharmaceuticals, 2022).

Test [1] has as its system all bacterial species considered in that study. The arrangement: method as in PMID 33513010. The settings on record: cited from earlier work.
In another test the target is T1, StOASS-A (Salmonella typhimurium, UniProt P0A1E3).
T1 construct: His-tag (with TEV site) (cleaved yes); made in house; host or cells: E. coli Rosetta (DE3)
T1 sequence (P0A1E3 whole entry): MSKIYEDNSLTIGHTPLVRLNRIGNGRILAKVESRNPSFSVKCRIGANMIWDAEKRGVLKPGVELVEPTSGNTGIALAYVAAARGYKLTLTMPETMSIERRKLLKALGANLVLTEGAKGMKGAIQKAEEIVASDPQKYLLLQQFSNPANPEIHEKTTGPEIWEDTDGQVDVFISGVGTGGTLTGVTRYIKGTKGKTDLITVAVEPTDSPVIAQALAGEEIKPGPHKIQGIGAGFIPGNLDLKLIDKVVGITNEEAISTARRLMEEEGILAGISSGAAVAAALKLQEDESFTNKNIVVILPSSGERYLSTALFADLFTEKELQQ
The arrangement: method as in PMID 26894308. The settings on record: read-out: KD toward isoform A from S. Typhimurium; cited from earlier work.

In another test the target is T2, StOASS-B (Salmonella typhimurium, UniProt P29848).
T2 construct: His-tag (with TEV site) (cleaved yes); made in house; host or cells: E. coli Rosetta (DE3)
T2 sequence (P29848 1-303): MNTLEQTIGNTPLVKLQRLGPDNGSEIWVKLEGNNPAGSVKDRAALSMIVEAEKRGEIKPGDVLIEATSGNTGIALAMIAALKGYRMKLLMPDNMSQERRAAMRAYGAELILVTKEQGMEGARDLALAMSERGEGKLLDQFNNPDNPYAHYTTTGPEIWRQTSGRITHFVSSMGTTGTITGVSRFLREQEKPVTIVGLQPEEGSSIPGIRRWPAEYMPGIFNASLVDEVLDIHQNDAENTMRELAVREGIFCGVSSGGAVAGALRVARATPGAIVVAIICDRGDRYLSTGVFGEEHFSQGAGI
The arrangement: method as in PMID 26894308. Conditions: read-out: KD toward isoform B from S. Typhimurium; cited from earlier work.

Another test relates to E. coli ATCC 25922. Put plainly: MIC by broth microdilution, E. coli. It is filed as cell-based, Escherichia coli. Conditions: colistin alone, MHB. As for the experimental part: (§1) MIC values were evaluated following CLSI guidelines with some modifications, as referred to in previous work. Twofold dilutions 25.6–0.05 mg/mL of the tested compounds were performed in DMSO in separate 96-well microtiter U-plates (Greiner, Milan, Italy). In a different 96-well microtiter U-plate, for each well of the replicates, 49 µL of broth medium were added. Then, in each well of the plate, one microliter of each compound at variable dilution in DMSO was added. For each test, three independent experiments with three replicates each were performed. Tested reference bacterial strains (E. coli ATCC25922; S. Typhimurium ATCC14028; K. pneumoniae ATCC13883) were brought to the logarithmic phase of growth in MHB medium by incubation at 37 °C for 24 h. After incubation, bacterial suspensions were centrifuged (2000 rpm, 4 °C for 20 min), and then the pellets were resuspended in 100 mM phosphate buffer, pH 7.0, to reach a final bacterial concentration of 10^8 CFU/mL, adjusted by spectrophotometry (OD620nm ranged between 0.08–0.13). The obtained suspensions were further diluted 1:100 in broth medium to reach a bacterial concentration of 10^6 CFU/mL. Fifty µL of the bacterial suspension containing 10^6 CFU/mL were inoculated into each well within 30 min, to obtain a final concentration of 5 × 10^5 CFU/mL in a total volume of 100 µL. The final dilution range tested was 256–0.5 µg/mL. Growth and sterility controls were performed for each strain and for each tested compound. Plates were then incubated for 24 h at 37 °C in a static aerobic atmosphere. After incubation, plates were read by unaided eye with a microtiter reading mirror and then the OD of each well of the plates was measured spectrophotometrically at 620 nm. MIC values were calculated as the arithmetic mean ± standard deviation (SD) of the unaided eye reading and the inhibition of growth for each tested dilution was calculated from the OD values (mean ± SD). A quality control microorganism (E. coli ATCC 25922) was tested periodically to validate the accuracy of the procedure.
Background: In broth dilution the organism is exposed to a series of concentrations in liquid medium.

For another test, the system named is K. pneumoniae ATCC13883. Put plainly: MIC by broth microdilution, K. pneumoniae. The test is classed as cell-based, Klebsiella pneumoniae. The settings on record: colistin alone, MHB. As for the experimental part:
as §1

The test system of a further test is S. Typhimurium DW378. Put plainly: Target engagement: MIC of 12h and colistin in cysK/cysM-inactive mutant strain. It is filed as cell-based, Salmonella enterica serovar Typhimurium. The settings on record: colistin alone. As for the experimental part:
In this regard, compound 12h has been selected because of its favorable overall properties. It has been tested at a concentration of 32 μg/mL, in order to ensure complete inactivation of both the OASS isoforms. […] The MIC assays of 12h and colistin alone on the DW378 strain have been performed and they have been compared with those obtained on the WT strain. […] But, on the other hand, the MIC value of colistin was […] lower on the mutant strain than that on the WT, a result that overlapped those achieved with the association of colistin and 12h in WT cells.
MIC values were evaluated following CLSI guidelines with some modifications, as referred to in previous work. Twofold dilutions 25.6–0.05 mg/mL of the tested compounds were performed in DMSO in separate 96-well microtiter U-plates (Greiner, Milan, Italy). In a different 96-well microtiter U-plate, for each well of the replicates, 49 µL of broth medium were added. Then, in each well of the plate, one microliter of each compound at variable dilution in DMSO was added. For each test, three independent experiments with three replicates each were performed.
Antimicrobial activity of associations between the different compounds and colistin (Sigma-Aldrich, St. Louis, MO, USA, lot n. 049M-4836 V) was tested with checkerboard assay with minor modifications, as mentioned in the previous work. For each assay, three experiments with three replicates each were assessed. For each compound tested concentration, 96-wells microtiter U-plates were prepared with twofold serial dilutions of colistin in MHB starting from the MIC value (µg/mL) for ten consecutive dilutions in 50 µL of broth. In each well of the same replicate, 1 µL of each compound in DMSO was added at a fixed concentration, 100 times higher than the final desired concentration (3.2; 1.6; 0.8 mg/mL). Subsequently, 49 µL of the bacterial suspension at a concentration of 10^6 CFU/mL, adjusted spectrophotometrically as reported above, was added to each well, reaching the final bacterial concentration of 5 × 10^5 CFU/mL. Growth and sterility controls were performed for each experiment and for each replicate. Finally, the plates were incubated at 37 °C in aerobic atmosphere for 24 h. After incubation, plates were read by unaided eye with a microtiter reading mirror and then the OD of each well of the plates was measured spectrophotometrically at 620 nm. MIC values were calculated as the arithmetic mean ± SD of the unaided eye reading and the inhibition of growth for each tested dilution was calculated from the OD values (mean ± SD).
* This strain is defective for the expression of cysK and cysM genes, encoding for isozymes OASS-A and B. The genotypes of this strain are trpC109, cysK1772, and cysM1770. […]

A further test has as its system S. Typhimurium ATCC14028. Put plainly: MIC by broth microdilution, S. Typhimurium. The test is classed as cell-based, Salmonella enterica serovar Typhimurium. The settings on record: colistin alone, MHB, ATCC14028 (wild type). The method, then: as §1

What is called Kd is the equilibrium constant for the complex coming apart. As to `Cc1ccc(C[C@@]2(C(=O)O)C[C@H]2c2ccccc2)cc1` [UPAR415], in test [1], the “effect as colistin adjuvant” value is “synergistic or additive effect”. Also, the values for the Kd at StOASS-A and on StOASS-B were 0.028 µM and 0.49 µM, respectively.
On to Colistin [reference compound], for which the “MIC Colistin E. coli” value against E. coli ATCC 25922 amounted to 0.39 ± 0.25 µg/mL. Besides, in the test on K. pneumoniae ATCC13883, the “MIC Colistin K. pneumoniae” value worked out at 4.00 ± 1.73 µg/mL. For the same molecule, the “MIC Colistin” value in the test with S. Typhimurium DW378 (DW378 mutant strain) came to 0.141 ± 0.09 µg/mL. Also, in the test on S. Typhimurium DW378 (DW378 versus wild type), the “MIC of colistin on mutant strain DW378 relative to WT (fold lower)” value is on record as 5 fold. Besides, the “MIC Colistin S. Typhimurium” value against S. Typhimurium ATCC14028 is 0.53 ± 0.19 µg/mL.
